Laboratory results reported in US7138361B2, “Herbicidal heterocycles” (E. I. du Pont de Nemours and Company, priority 2000, dated 2006).

Legend:
Type in all cases: in vivo
[1] = system: barnyardgrass (Echinochloa crus-galli); assay: Test C flooded paddy test; details: for Barnyardgrass plant response rating: Flooded Paddy, scale 0 to 100, 0 no effect, 100 complete control; for Plant response rating, Barnyardgrass: flooded paddy test, scale 0 to 100 (0 no effect, 100 complete control)
Outline: (§1)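 Visual injury score, 0 (no effect) to 100 (complete control), relative to controls. Paddy plants treated at 2-leaf stage; greenhouse hold 12–14 d before rating.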

[2] = system: smallflower flatsedge (Cyperus difformis); assay: Test C flooded paddy test; details: for Flatsedge plant response rating: Flooded Paddy, scale 0 to 100, 0 no effect, 100 complete control; for Plant response rating, Flatsedge: flooded paddy test, scale 0 to 100 (0 no effect, 100 complete control)
Outline: as §1

[3] = system: duck salad (Heteranthera limosa); assay: Test C flooded paddy test; details: for Ducksalad plant response rating: Flooded Paddy, scale 0 to 100, 0 no effect, 100 complete control; for Plant response rating, Ducksalad: flooded paddy test, scale 0 to 100 (0 no effect, 100 complete control)
Outline: as §1

Sunflower [4] = assay: Test C preemergence; details: Rate 500 g/ha, visual evaluation after 12 to 14 days
[5] = system: Surinam grass (Brachiaria decumbens); assay: Test C preemergence
Outline: (§2)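 Pre- and postemergence treatments used a non-phytotoxic solvent/surfactant formulation; post-treated plants measured 2 to 18 cm. Greenhouse hold 12–14 d; % control estimated visually relative to controls.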

soybean (Glycine max) = assay: Test C preemergence
Outline: as §2

[6] = system: goosegrass (Eleusine indica); assay: Test C preemergence
Outline: as §2

[7] = system: giant foxtail (Setaria faberii); assay: Test C preemergence
Outline: as §2

[8] = system: velvetleaf (Abutilon theophrasti); assay: Test C preemergence
Outline: as §2

[9] = system: woolly cupgrass (Eriochloa villosa); assay: Test C preemergence
Outline: as §2

[10] = system: johnsongrass (Sorghum halepense); assay: Test C preemergence
Outline: as §2

[11] = system: yellow nutsedge (Cyperus esculentus); assay: Test C preemergence
Outline: as §2

[12] = system: cocklebur (Xanthium strumarium); assay: Test C preemergence; details: preemergence
Outline: as §2

Sunflower [13] = assay: Test C preemergence; details: Rate 125 g/ha; scale 0 to 100, 0 no effect, 100 complete control
[14] = system: crabgrass (Digitaria sanguinalis); assay: Test C preemergence
Outline: as §2

[15] = system: morningglory (Ipomoea hederacea); assay: Test C preemergence
Outline: as §2

Nightshade = assay: Test C preemergence
[16] = system: bermudagrass (Cynodon dactylon); assay: Test C preemergence
Outline: as §2

[17] = system: pigweed (Amaranthus retroflexus); assay: Test C preemergence
Outline: as §2

kochia (Kochia scoparia) = assay: Test C preemergence
Outline: as §2

[18] = system: lambsquarters (Chenopodium album); assay: Test C preemergence
Outline: as §2

corn (Zea mays) = assay: Test C preemergence; details: preemergence
Outline: as §2

[19] = Rate 125 g/ha, scale 0 to 100, 0 no effect, 100 complete control
[20] = preemergence, Rate 62 g/ha, scale 0 to 100
[21] = preemergence, Rate 500 g/ha, visual evaluation after 12 to 14 days
[22] = preemergence, Rate 250 g/ha, scale 0 to 100, 0 no effect, 100 complete control
[23] = Rate 500 g/ha, visual evaluation after 12 to 14 days
[24] = Rate 250 g/ha, scale 0 to 100, 0 no effect, 100 complete control

CCCC(C)c1ccn(C2CCN(c3cccc(C(F)(F)F)c3)C2=O)n1 (stereo not shown) [Compound 100]
60: Barnyardgrass plant response rating ([1]; Rate 500 g/ha)
10: Plant response rating, Foxtail, Giant [7, 19]
30: Plant response rating (0 to 100), Surinam grass [5, 21]
100: Plant response rating (0 to 100), Goosegrass [6, 21] | Plant response rating, Goosegrass [6, 22] | Plant response rating (0 to 100), Foxtail, Giant [7, 21] | Plant response rating (0 to 100), Cupgrass, Woolly [9, 21] | Plant response rating (0 to 100), Johnsongrass [10, 21] | Plant response rating, Crabgrass [14, 19] | Plant response rating, Crabgrass [14, 20] | Plant response rating (0 to 100), Crabgrass [14, 21] | Plant response rating, Crabgrass [14, 22] | Plant response rating (0 to 100 where 0 is no effect and 100 is complete control), Bermudagrass [16, 21] | Plant response rating, Bermudagrass [16, 22] | Plant response rating (0 to 100), Pigweed [17, 21] | Plant response rating (0 to 100), Kochia (kochia (Kochia scoparia); [21]) | Plant response rating, Lambsquarters [18, 19] | Plant response rating (0 to 100), Lambsquarters [18, 21] | Plant response rating, Lambsquarters [18, 22]
90: Flatsedge plant response rating ([2]; Rate 500 g/ha) | Plant response rating, Goosegrass [6, 19] | Plant response rating, Foxtail, Giant [7, 20] | Plant response rating, Johnsongrass [10, 19] | Plant response rating, Johnsongrass [10, 22] | Plant response rating, Bermudagrass [16, 19] | Plant response rating, Bermudagrass [16, 20] | Plant response rating, Kochia (kochia (Kochia scoparia); [22]) | Plant response rating, Lambsquarters [18, 20]
40: Ducksalad plant response rating ([3]; Rate 500 g/ha) | Plant response rating, Foxtail, Giant [7, 22]
20: Plant response rating, Cupgrass, Woolly [9, 19] | Plant response rating, Cupgrass, Woolly [9, 22] | Plant response rating, Pigweed [17, 22] | Plant response rating, Corn (corn (Zea mays); Rate 62 g/ha, scale 0 to 100) | Plant response rating (0 to 100), Corn (corn (Zea mays); [23]) | Plant response rating, Corn (corn (Zea mays); [24])
0: Barnyardgrass plant response rating ([1]; Rate 250 g/ha) | Plant response rating, Barnyardgrass ([1]; Rate 62 g/ha) | Plant response rating, Barnyardgrass ([1]; Rate 125 g/ha) | Ducksalad plant response rating ([3]; Rate 250 g/ha) | Plant response rating, Ducksalad ([3]; Rate 62 g/ha) | Plant response rating, Ducksalad ([3]; Rate 125 g/ha) | Plant response rating (0 to 100), Sunflower (Sunflower [4]) | Plant response rating, Surinam grass [5, 19] | Plant response rating, Surinam grass [5, 20] | Plant response rating, Surinam grass [5, 22] | Plant response rating, Soybean (soybean (Glycine max); [19]) | Plant response rating, Soybean (soybean (Glycine max); [20]) | Plant response rating (0 to 100), Soybean (soybean (Glycine max); [21]) | Plant response rating, Soybean (soybean (Glycine max); [22]) | Plant response rating, Velvetleaf [8, 19] | Plant response rating, Velvetleaf [8, 20] | Plant response rating (0 to 100), Velvetleaf [8, 21] | Plant response rating, Velvetleaf [8, 22] | Plant response rating, Cupgrass, Woolly [9, 20] | Plant response rating, Johnsongrass [10, 20] | Plant response rating, Nutsedge [11, 19] | Plant response rating, Nutsedge [11, 20] | Plant response rating (0 to 100), Nutsedge [11, 21] | Plant response rating, Nutsedge [11, 22] | Plant response rating, Cocklebur ([12]; Rate 62 g/ha, scale 0 to 100) | Plant response rating (0 to 100), Cocklebur [12, 23] | Plant response rating, Cocklebur [12, 24] | Plant response rating, Sunflower (Sunflower [13]) | Plant response rating, Morningglory [15, 19] | Plant response rating, Morningglory [15, 20] | Plant response rating (0 to 100), Morningglory [15, 21] | Plant response rating, Morningglory [15, 22] | Plant response rating, Nightshade (Nightshade; Rate 62 g/ha, scale 0 to 100) | Plant response rating, Nightshade (Nightshade; [19]) | Plant response rating, Nightshade (Nightshade; [24]) | Plant response rating, Pigweed [17, 19] | Plant response rating, Pigweed [17, 20] | Plant response rating, Kochia (kochia (Kochia scoparia); [19]) | Plant response rating, Kochia (kochia (Kochia scoparia); [20])
80: Plant response rating, Goosegrass [6, 20]
70: Flatsedge plant response rating ([2]; Rate 250 g/ha) | Plant response rating, Flatsedge ([2]; Rate 62 g/ha) | Plant response rating, Flatsedge ([2]; Rate 125 g/ha)
